Where two headings read alike, the source gives them in different places.
Legend:
SE03 = experiment: Real-time ethidium bromide accumulation assay (efflux pump inhibition); format: cell-based, Salmonella enterica serovar Typhimurium SL1344; conditions: compounds 50 µM (compound 12 at 17 µM), CCCP 25 µM, minute 60, EB 1 µg/mL
Procedure: The relative fluorescence index (RFI) was calculated based on the means of relative fluorescence units, and theses RFIs are depicted in Table 4.
The compounds were evaluated for their ability to inhibit the efflux of EB, an efflux pump substrate, in Salmonella enterica serovar Typhimurium SE03 and S. aureus 272123 strains, through real-time fluorimetry, monitoring the intracellular accumulation of EB, an efflux pump substrate. This was determined by the automated method using a CLARIOstar Plus plate reader (BMG Labtech, Ortenberg, Germany). Reserpine and CCCP were applied at 25 µM as positive controls, and the solvent DMSO was applied at 1% v/v. The bacterial strains were incubated in an appropriate culture media (TSB–S. aureus 272123; LB-B–SE03) at 37 °C until they reached an optical density (OD) of 0.6 at 600 nm. The culture was centrifuged at 13,000× g for 3 min, and the pellet was washed and resuspended with phosphate buffered saline (PBS, pH 7.4). The suspension was centrifuged again in the same conditions and resuspended in PBS.
Then, 50 µL of this solution were transferred into a 96-well black microtiter plate (Greiner Bio-One Hungary Kft, Mosonmagyaróvár, Fertősor, Hungary), and 50 µL of bacterial suspension (OD600 = 0.6) were added to each well. The plates were placed into the CLARIOstar plate reader, and the fluorescence was monitored at excitation and emission wavelengths of 530 nm and 600 nm, respectively, every minute for one hour on a real-time basis. From the real-time data, the activity of the compounds, namely the relative fluorescence index (RFI) of the last time point (minute 60) of the EB accumulation assay, was calculated according to the following equation:(1) RFI=RFtreated−RFuntreated/RFuntreated where RFtreated is the relative fluorescence (RF) at the last time point of EB accumulation curve in the presence of the compound, and RFuntreated is the RF at the last time point of the EB accumulation curve of the untreated control, having only the solvent (DMSO) control. The accumulation curves were designed using Microsoft Excel®. The samples were tested in triplicate, and the RFI presented comes from the average of these three values. The accumulation graphs present the mean of the RF at the last time point. The standard deviation (SD) was calculated automatically and included in the RF graphs.

wt85 = experiment: Quorum sensing inhibition assay (pigment production); format: cell-based, Chromobacterium violaceum wild-type 85; conditions: Chromobacterium violaceum, read-out: Quorum Sensing Inhibition (mm) ± SD
Procedure: (§1) Concerning the QS inhibition assay, the sensor strain Chromobacterium violaceum CV026 and the AHL producer strain Sphingomonas paucimobilis Ezf 10-17 (EZF) were inoculated as parallel lines, and the AHL producers Chromobacterium violaceum wild-type 85 (wt85) and Serratia marcescens AS-1 were inoculated as a single line. The interaction between the strains and compounds 2–18 was evaluated as the reduction of pigment production, in millimeters (mm) (Table 5) with promethazine (PMZ) as a positive control.
(§2) The QS inhibitory effect of the compounds was examined on the EZF and the sensor CV026 strains, on the wt85 strain, and on S. marcescens. The method used was the parallel inoculation method, where pair combinations of the used sensor strain CV026 and the N-acyl-homoserine lactone (AHL) producing strain EZF were inoculated directly onto the LB*-A agar surface in parallel, at an approximate distance of 5 mm from each other. S. marcescens AS-1 and wt85 were inoculated as a single line. Filter paper disks (7 mm in diameter) were placed on the center of the inoculated line(s) and impregnated with 8 µL of a solution of 10 mM of the compounds. […] The agar plates were incubated at room temperature (20 °C) for 24−48 h. The QS inhibition was accessed visually, through the inhibition of pigment production. The discolored, but intact, bacterial colonies were measured with a ruler.

EZF + CV026 = experiment: Quorum sensing inhibition assay (pigment production), parallel inoculation; format: cell-based; conditions: disk with 8 µL of 10 mM solution, read-out: Quorum Sensing Inhibition (mm) ± SD
Procedure: as §1, §2

S. marcescens = experiment: Quorum sensing inhibition assay (pigment production); format: cell-based, Serratia marcescens AS-1; conditions: Serratia marcescens, read-out: Quorum Sensing Inhibition (mm) ± SD
Procedure: as §1, §2

S. aureus 272123 = experiment: Antibacterial activity, broth microdilution MIC; format: cell-based; conditions: Staphylococcus aureus, 272123, read-out: Minimum Inhibitory Concentration (MIC)
Description: (§3) The referred library of thioxanthones was initially tested for their antimicrobial activity against six bacterial strains: the Gram-negative Escherichia coli ATCC 25922, Pseudomonas aeruginosa ATCC 27853 and Salmonella enterica serovar Typhimurium SL1344 (SE03), with the acrA gene deleted, and the Gram-positive Staphylococcus aureus ATCC 29213, Enterococcus faecalis ATCC 29212 and the methicillin and ofloxacin-resistant clinical isolate S. aureus 272123. For the synergy assay, two clinically relevant isolates were used: the extended-spectrum β-lactamase (ESBL)-producing E. coli SA/2 [23] and the vancomycin-resistant E. faecalis (VRE) B3/101 [23]. The antibiotics used were cefotaxime (CTX) and vancomycin (VAN), respectively.
(§4) The minimum inhibitory concentration (MIC) for each compound was determined by broth microdilution method in a 96-well plate according to the Clinical and Laboratory Standard Institute (CLSI) guidelines. The medium used was MHB II. The concentrations tested ranged from 100 µM to 0.195 µM and were prepared from a stock solution of 10 mM in DMSO, for S. aureus 272123 and SE03; for the other strains, the concentrations tested ranged from 64 µg/mL to 4 µg/mL and were prepared from a stock solution of 10 mg/mL in DMSO. DMSO was used in subinhibitory concentrations (1% v/v). The MIC was determined by visual inspection.

E. faecalis ATCC 29212 = experiment: Antibacterial activity, broth microdilution MIC; format: cell-based; conditions: Enterococcus faecalis
Description: as §3, §4

S. aureus ATCC 29213 = experiment: Antibacterial activity, broth microdilution MIC; format: cell-based; conditions: Staphylococcus aureus
Description: as §3, §4

[1] = ATCC29212, read-out: Minimum Inhibitory Concentration (MIC)
[2] = ATCC29212, E. faecalis ATCC 29212, read-out: Minimum Inhibitory Concentration (MIC)
[3] = ATCC29213, read-out: Minimum Inhibitory Concentration (MIC)
[4] = ATCC29213, S. aureus ATCC 29213, read-out: Minimum Inhibitory Concentration (MIC)

| SMILES | RFI ± SD (SE03) | zone of inhibition at 10000 µM (wt85) [mm] | zone of inhibition at 10000 µM (EZF + CV026) [mm] | zone of inhibition at 10000 µM (S. marcescens) [mm] | MIC (S. aureus 272123) [µM] | MIC (E. faecalis ATCC 29212; [1]) [µM] | MIC (E. faecalis ATCC 29212; [2]) | MIC (S. aureus ATCC 29213; [3]) [µM] | MIC (S. aureus ATCC 29213; [4]) |
| --- | --- | --- | --- | --- | --- | --- | --- | --- | --- |
| CCCOc1ccc(NCCN(CC)CC)c2c(=O)c3ccccc3sc12 [Compound 2] | −0.02 ± 0.04 | 0 | 0 | 0 | > 100 | 83 | 32 µg/mL | 83 | 32 µg/mL |
| CCCOc1ccc(N2CCCCC2)c2c(=O)c3ccccc3sc12 [Compound 3] | 0.67 ± 0.01 | 0 | 31 ± 0.8 | 0 | > 100 | – | > 100 µM | – | > 100 µM |
| CCCOc1ccc(Nc2nc(C)cc(C)n2)c2c(=O)c3ccccc3sc12 [Compound 8, 1-[(4,6-Dimethylpyrimidin-2-yl)amino]-4-propoxy-9H-thioxanthen-9-one] | 0.74 ± 0.08 | 0 | 32 ± 0.1 | 0 | > 100 | – | > 100 µM | – | > 100 µM |
| CCCOc1ccc(N2CCNC(=O)C2)c2c(=O)c3ccccc3sc12 [Compound 9, 4-(9-Oxo-4-propoxy-9H-thioxanthen-1-yl)piperazin-2-one] | 1.54 ± 0.09 | 0 | 0 | 0 | > 100 | – | > 100 µM | – | > 100 µM |
| CCCOc1ccc(NCCO)c2c(=O)c3ccccc3sc12 [Compound 10, 1-[(2-Hydroxyethyl)amino]-4-propoxy-9H-thioxanthen-9-one] | 6.00 ± 0.80 | 0 | 0 | 0 | > 100 | – | > 100 µM | – | > 100 µM |
| CCCOc1ccc(NCCN2CCOCC2)c2c(=O)c3ccccc3sc12 [Compound 11, 1-[(2-Morpholinoethyl)amino]-4-propoxy-9H-thioxanthen-9-one] | 1.37 ± 0.054 | 0 | 0 | 31 ± 0.8 | > 100 | – | > 100 µM | – | > 100 µM |
| CCCOc1ccc(NS(=O)(=O)c2ccc(C(=O)O)cc2)c2c(=O)c3ccccc3sc12 [Compound 12, 4-[N-(9-Oxo-4-propoxy-9H-thioxanthen-1-yl)sulfamoyl]benzoic acid] | −0.21 ± 0.07 | 0 | 0 | 0 | > 100 | 34 | 16 µg/mL | 34 | 16 µg/mL |
| CCCOc1ccc(NS(=O)(=O)c2ccc(N)cc2)c2c(=O)c3ccccc3sc12 [Compound 13, 4-Amino-N-(9-oxo-4-propoxy-9H-thioxanthen-1-yl)benzenesulfonamide] | 1.23 ± 0.18 | 0 | 51 ± 0.1 | 0 | > 100 | – | > 100 µM | – | > 100 µM |
| CCCOc1ccc(Br)c2c(=O)c3ccccc3sc12 [Compound 14, 1-Bromo-4-propoxy-9H-thioxanthen-9-one] | 0.87 ± 0.11 | 0 | 0 | 0 | > 100 | – | > 100 µM | – | > 100 µM |
| CCCOc1ccc2ncnc3c2c1Sc1ccccc1-3 [Compound 15] | 0.54 ± 0.11 | 0 | 50 ± 0.1 | 32 ± 0.5 | > 100 | – | > 100 µM | – | > 100 µM |
| CCCOc1ccc2nc(N)nc3c2c1Sc1ccccc1-3 [Compound 16] | 7.52 ± 0.01 | 0 | 29 ± 0.8 | 0 | > 100 | – | > 100 µM | – | > 100 µM |
| CCCOc1ccc2nc(NCc3ccccc3Cl)nc3c2c1Sc1ccccc1-3 [Compound 17] | 25.51 ± 2.93 | 0 | 49 ± 0.5 | 0 | > 100 | – | > 100 µM | – | > 100 µM |
| CCCOc1ccc2c3c(n/c(=N\c4ccccc4C)n2-c2ccccc2C)-c2ccccc2Sc13 [Compound 18] | 0.20 ± 0.02 | 0 | 0 | 0 | > 100 | – | > 100 µM | – | > 100 µM |
